Assay results reported in patent US20240382517A1, “Topical Pharmaceutical Skin Composition for the Delivery of Nitric Oxide in Combination with Other Topical Dermatologic Agents” (NOxy Health Products, Inc., priority 2023, published 2024).
“Also recorded” adds a separate entry of the source. Structures can show the parent of a compound that is named as a salt.

Experiments:
Type in all cases: physicochemical
[1] = NOx release from mixed liquids, Thermoscientific 42iQLS Gas Analyzer
From the text: For the NO release testing, one mL of each solution was dispensed into a weight boat using the pipetter. A new pipette tip was used for each aliquot. For NO release measurements, the weigh boat was then placed into the sampling bin of a Thermoscientific 42iQLS Gas Analyzer, and the lid placed on top. The analyzer began measuring NOx released from the mixed liquid in the weigh boat as indicated by the rise of both the NO and NO2 measurements on the screen of the analyzer, a 10-minute timer was started.
Once the datalogger had collected 70 time points (700 seconds) of data: • 1. the data logging program was halted • 2. The weigh boat was removed from the chamber and disposed of in a separate room • 3. A fan was used to blow fresh air into the testing chamber for 10 seconds • 4. The next test was conducted when the analyzer measured less than 5 ppm total NOx […]
About 1 mL of Manuka honey was mixed with 1 mL of standard second (B) solution (not including BAC). […]

[2] = pH of lidocaine HCl solution, calibrated lab pH meter; details: 4 percent solution in water
Protocol: A 4% w/w solution of lidocaine in deionized water was prepared. The pH of the solution was measured using a conventional calibrated lab pH meter.

[3] = Mixing of lidocaine HCl solution into the first (A) solution in a stable manner; details: first (A) solution not including BAC; monitoring time three minutes
From the text: The monitoring time was three minutes.

[4] = NOx production of mixed foams, Thermoscientific 42iQLS Gas Analyzer; details: 0.4 M, 0.5 M, 0.6 M ascorbic acid as first (A) solution + second (B) solution without BAC; compared to citric acid; FIG. 4
Protocol: Methods. Solutions A and B were agitated by vigorous shaking until they produced foams. Then, two pumps of foam A (from Solution A) and foam B (from Solution B) were added to a weigh boat, and then the resulting mixture was thoroughly mixed with a gloved finger for five seconds. The resulting mixture was then placed in the sample chamber for measurement using a Thermoscientific 42iQLS Gas Analyzer. The measured concentration of the NOx produced was recorded every ten seconds. Using the Ideal Gas Law, the mass in mols of NOx was calculated.
The first (A) solution was prepared as described in Example 1, except BAC was not included. The second (B) solution was prepared by dissolving salicylic acid in a stoichiometric amount of sodium hydroxide dissolved in water. Once all of the salicylic acid was dissolved, sodium nitrite and coco betaine were added. The first (A) and second (B) solutions were then mixed. A foam was produced upon the mixing/priming of the first (A) solution and the second (B) solution.
Three solutions of ascorbic acid (0.4 M, 0.5 M, and 0.6 M) were prepared and used as first (A) solutions. The second (B) solution was as provided in Example 1 except that BAC was not included. The solutions were poured into small foam dispensers. One squirt of foam from each of the first (A) solution and the second (B) solution was combined in a weight boat and NOx formation was measured.

In the case of `CCN(CC)CC(=O)Nc1c(C)cccc1C` [lidocaine HCl], the NOx release ([1]; 4 percent lidocaine HCl solution mixed with second (B) solution (no BAC) only, FIG. 6) is reported as “NO was produced; also recorded: Only a small amount of NOx was released”, the NOx release ([1]; 4 percent lidocaine HCl solution mixed with standard first (A) and second (B) solutions (no BAC), FIG. 7) is reported as “NO was also produced; also recorded: a large amount of NOx was released” and the pH [2] is reported as 4.16. The “reaction on mixing with the standard first (A) solution” value [3] was “No reaction was observed”.

In the case of `O=C1O[C@H]([C@@H](O)CO)C(O)=C1O` [ascorbic acid], the “production of NOx” value [4] is reported as “lower levels of production of NOx than citric acid”.
